For orientation: Emax means the size of the effect at its maximum, as opposed to the concentration needed.

Common to all, as to format: cell-based
One experiment concerns the target T1, M1 muscarinic receptor (Homo sapiens, UniProt P11229).
T1 construct: expressed in transfected cells; host or cells: CHO (M1-CHO)
T1 sequence (P11229 1-460): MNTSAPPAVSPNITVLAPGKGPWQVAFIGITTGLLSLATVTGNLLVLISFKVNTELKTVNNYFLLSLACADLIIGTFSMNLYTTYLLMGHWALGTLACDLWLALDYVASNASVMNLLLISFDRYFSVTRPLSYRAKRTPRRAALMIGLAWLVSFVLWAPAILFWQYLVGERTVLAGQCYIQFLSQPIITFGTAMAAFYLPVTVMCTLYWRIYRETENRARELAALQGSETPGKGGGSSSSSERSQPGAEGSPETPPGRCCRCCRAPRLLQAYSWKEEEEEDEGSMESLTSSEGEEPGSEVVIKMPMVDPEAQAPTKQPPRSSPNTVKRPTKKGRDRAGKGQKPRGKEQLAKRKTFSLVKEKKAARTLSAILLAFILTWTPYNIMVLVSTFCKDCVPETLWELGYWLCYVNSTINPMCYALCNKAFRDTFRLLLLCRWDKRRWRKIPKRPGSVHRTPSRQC
Description: Functional mobilization of intracellular calcium (FLIPR), M1-CHO cells. The settings on record: for Emax: 100% efficacy = maximum response obtained with the Carbachol control; for M1 Activity: M1-CHO cells, calcium mobilization (FLIPR). The procedure, abridged:
(§1)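 CHO cells expressing human M1–M4 receptors loaded with Fluo-3 AM or Calcium 3 dye (1 mM probenecid, pH 7.4); 0.5% DMSO final. Agonist mode: compound added directly; antagonist mode: 15 min pre-incubation or co-application, then carbachol at EC80. Fluorescence read 60 s on FLIPR; efficacy relative to carbachol maximum.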
A general note: Calcium assays in cells follow changes in intracellular calcium, usually with a dye or a luminescent sensor.

Another experiment has as its target T2, M3 muscarinic receptor (Homo sapiens, UniProt P20309).
T2 construct: expressed in transfected cells; host or cells: CHO (M3-CHO)
Kind of experiment: Functional mobilization of intracellular calcium (FLIPR), M3-CHO cells. The settings on record: for Emax: 100% efficacy = maximum response obtained with the Carbachol control; for M3 Activity: M3-CHO cells, calcium mobilization (FLIPR). The procedure, abridged:
as §1

The target in a further experiment is T3, M4 muscarinic receptor (Homo sapiens, UniProt P08173).
T3 construct: expressed in transfected cells; host or cells: CHO (M4-CHO)
T3 sequence (P08173 1-479): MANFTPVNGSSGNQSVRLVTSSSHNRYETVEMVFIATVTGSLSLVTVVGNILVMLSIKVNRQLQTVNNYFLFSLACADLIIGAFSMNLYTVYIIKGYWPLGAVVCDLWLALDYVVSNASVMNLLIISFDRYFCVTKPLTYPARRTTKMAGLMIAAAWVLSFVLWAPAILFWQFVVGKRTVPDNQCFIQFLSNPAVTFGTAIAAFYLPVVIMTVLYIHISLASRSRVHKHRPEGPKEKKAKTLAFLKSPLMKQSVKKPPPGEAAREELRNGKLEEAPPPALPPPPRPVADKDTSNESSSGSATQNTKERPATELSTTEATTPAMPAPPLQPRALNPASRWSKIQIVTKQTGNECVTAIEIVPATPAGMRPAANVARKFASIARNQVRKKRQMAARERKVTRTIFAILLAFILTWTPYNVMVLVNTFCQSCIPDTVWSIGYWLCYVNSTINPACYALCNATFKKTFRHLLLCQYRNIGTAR
Description: Functional mobilization of intracellular calcium (FLIPR), M4-CHO cells. The settings on record: for Emax: 100% efficacy = maximum response obtained with the Carbachol control; for M4 Activity: M4-CHO cells, calcium mobilization (FLIPR). The method in brief: as §1

Another experiment addresses T4, M2 muscarinic receptor (Homo sapiens, UniProt P08172).
T4 construct: expressed in transfected cells; host or cells: CHO (M2-CHO)
T4 sequence (P08172 1-466): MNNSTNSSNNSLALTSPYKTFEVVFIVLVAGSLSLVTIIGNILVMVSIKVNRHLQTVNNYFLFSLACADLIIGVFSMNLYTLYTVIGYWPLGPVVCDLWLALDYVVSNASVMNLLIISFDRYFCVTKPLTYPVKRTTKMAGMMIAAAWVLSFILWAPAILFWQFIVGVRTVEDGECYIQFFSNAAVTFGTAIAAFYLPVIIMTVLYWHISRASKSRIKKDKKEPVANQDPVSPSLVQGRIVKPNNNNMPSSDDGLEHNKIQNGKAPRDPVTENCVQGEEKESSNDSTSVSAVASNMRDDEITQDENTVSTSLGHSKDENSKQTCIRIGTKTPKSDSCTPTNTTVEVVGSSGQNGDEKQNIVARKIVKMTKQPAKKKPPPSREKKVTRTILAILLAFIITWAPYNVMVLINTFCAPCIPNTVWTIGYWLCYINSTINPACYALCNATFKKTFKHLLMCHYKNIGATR
Kind of experiment: Functional mobilization of intracellular calcium (FLIPR), M2-CHO cells. The settings on record: for Emax: 100% efficacy = maximum response obtained with the Carbachol control; for M2 Activity: M2-CHO cells, calcium mobilization (FLIPR). The method in brief: as §1

A value given as a limit tells only on which side of the number the result lay.

T2 sequence (P20309 whole entry): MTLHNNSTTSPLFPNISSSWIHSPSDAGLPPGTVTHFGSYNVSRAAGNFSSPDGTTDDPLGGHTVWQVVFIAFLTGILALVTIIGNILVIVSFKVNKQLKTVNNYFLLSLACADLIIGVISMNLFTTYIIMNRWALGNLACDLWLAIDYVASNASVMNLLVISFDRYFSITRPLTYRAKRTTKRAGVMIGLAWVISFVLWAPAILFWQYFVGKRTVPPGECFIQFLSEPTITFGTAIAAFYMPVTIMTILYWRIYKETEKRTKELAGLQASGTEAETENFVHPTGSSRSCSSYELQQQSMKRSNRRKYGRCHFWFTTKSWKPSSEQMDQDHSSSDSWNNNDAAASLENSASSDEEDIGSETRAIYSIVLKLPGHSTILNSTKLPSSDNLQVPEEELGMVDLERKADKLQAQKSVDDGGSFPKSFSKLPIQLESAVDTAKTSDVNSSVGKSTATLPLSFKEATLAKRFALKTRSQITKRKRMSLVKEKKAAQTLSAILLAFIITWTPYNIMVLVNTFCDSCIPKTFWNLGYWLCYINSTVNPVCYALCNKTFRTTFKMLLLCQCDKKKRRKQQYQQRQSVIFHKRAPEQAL

As to `COc1ccccc1C1CCN(C2CCC(C)C2)CC1` (stereo not drawn) [Compound 265], at M1 muscarinic receptor, the maximum response (Emax) is 25 to 100% and the “M1 Activity” value is “+ (activity was measured to be greater than 5.0 μM)”. Further, on M3 muscarinic receptor, the maximal response (Emax) is below 25% and the “M3 Activity” value is on record as “+ (activity was measured to be greater than 5.0 μM)”. Also, at M4 muscarinic receptor, the Emax lay in the range of 25 to 100% and the “M4 Activity” value is recorded as “+++ (activity was measured to be less than 1.0 μM)”. Besides, at M2 muscarinic receptor, the maximal response (Emax) is below 25% and the “M2 Activity” value is listed as “+ (activity was measured to be greater than 5.0 μM)”.

Take `COc1ccccc1C1CCN(C2CCN(C(C)=O)CC2)CC1` [Compound 266]: at M1 muscarinic receptor, the Emax was below 25% and the “M1 Activity” value is “+ (activity was measured to be greater than 5.0 μM)”. Moreover, at M3 muscarinic receptor, the Emax was below 25% and the “M3 Activity” value was “+ (activity was measured to be greater than 5.0 μM)”. In addition, on M4 muscarinic receptor, the Emax is 25 to 100% and the “M4 Activity” value is listed as “++ (activity was measured to be from 1.0 μM to 5.0 μM)”. In addition, at M2 muscarinic receptor, the Emax was below 25% and the “M2 Activity” value was “+ (activity was measured to be greater than 5.0 μM)”.

Turning to `COc1ccc(-c2ccc(F)cc2)cc1C1CCN([C@H]2C[C@H]3CC[C@H]2C3)CC1` [Compound 267], on M1 muscarinic receptor, the Emax is 25 to 100% and the “M1 Activity” value is given as “+ (activity was measured to be greater than 5.0 μM)”. Besides, at M3 muscarinic receptor, the Emax was below 25% and the “M3 Activity” value was “+ (activity was measured to be greater than 5.0 μM)”. Further, at M4 muscarinic receptor, the Emax fell in the range of 25 to 100% and the “M4 Activity” value is recorded as “+ (activity was measured to be greater than 5.0 μM)”. On M2 muscarinic receptor, the Emax is below 25% and the “M2 Activity” value is recorded as “+ (activity was measured to be greater than 5.0 μM)”.

Take `COc1ccc(-c2ccc(S(C)(=O)=O)cc2)cc1C1CCN(C2CCCCC2)CC1` [Compound 268]: at M1 muscarinic receptor, the Emax was in the range of 25 to 100% and the “M1 Activity” value was “+ (activity was measured to be greater than 5.0 μM)”. Moreover, at M3 muscarinic receptor, the Emax is below 25% and the “M3 Activity” value is on record as “+ (activity was measured to be greater than 5.0 μM)”. For the same compound, at M4 muscarinic receptor, the Emax lay within 25 to 100% and the “M4 Activity” value is recorded as “++ (activity was measured to be from 1.0 μM to 5.0 μM)”. For the same compound, on M2 muscarinic receptor, the Emax lay in the range of 25 to 100% and the “M2 Activity” value is “+ (activity was measured to be greater than 5.0 μM)”.

As for `O=C(COc1ccccc1C1CCN([C@H]2C[C@H]3CC[C@H]2C3)CC1)c1ccccc1` [Compound 269], on M1 muscarinic receptor, the Emax was in the range of 25 to 100% and the “M1 Activity” value was “+ (activity was measured to be greater than 5.0 μM)”. In addition, on M3 muscarinic receptor, the Emax is below 25% and the “M3 Activity” value was “+ (activity was measured to be greater than 5.0 μM)”. Moreover, on M4 muscarinic receptor, the Emax was 25 to 100% and the “M4 Activity” value is “+++ (activity was measured to be less than 1.0 μM)”. At M2 muscarinic receptor, the Emax is below 25% and the “M2 Activity” value is given as “+ (activity was measured to be greater than 5.0 μM)”.

`CCOC(=O)N1C2CCC1CC(N1CCC(c3cc(-c4ccc(C(=O)NC)cc4)ccc3OC)CC1)C2` (stereo not drawn) [Compound 270]: at M1 muscarinic receptor, the Emax lay within 25 to 100% and the “M1 Activity” value was “+++ (activity was measured to be less than 1.0 μM)”. In addition, on M3 muscarinic receptor, the maximal response (Emax) was below 25% and the “M3 Activity” value is “+ (activity was measured to be greater than 5.0 μM)”. On M4 muscarinic receptor, the maximum response (Emax) was 25 to 100% and the “M4 Activity” value was “+++ (activity was measured to be less than 1.0 μM)”. Moreover, on M2 muscarinic receptor, the Emax was below 25% and the “M2 Activity” value is “+ (activity was measured to be greater than 5.0 μM)”.

As for `CCOC(=O)N1CCC(CN2CCC(c3ccccc3OC(F)(F)F)CC2)CC1` [Compound 271], on M1 muscarinic receptor, the Emax was in the range of 25 to 100% and the “M1 Activity” value is reported as “+++ (activity was measured to be less than 1.0 μM)”. Moreover, on M3 muscarinic receptor, the Emax was below 25% and the “M3 Activity” value was “+ (activity was measured to be greater than 5.0 μM)”. On M4 muscarinic receptor, the maximal effect (Emax) lay in the range of 25 to 100% and the “M4 Activity” value is “+++ (activity was measured to be less than 1.0 μM)”. In addition, on M2 muscarinic receptor, the maximal effect (Emax) was 25 to 100% and the “M2 Activity” value is listed as “++ (activity was measured to be from 1.0 μM to 5.0 μM)”.

As to `CCOC(=O)N1CCC(CN2CCC(c3cc(-c4ccc(C(C)(C)C#N)cc4)ccc3OC)CC2)CC1` [Compound 272], at M1 muscarinic receptor, the Emax lay in the range of 25 to 100% and the “M1 Activity” value is on record as “+++ (activity was measured to be less than 1.0 μM)”. On M3 muscarinic receptor, the maximal effect (Emax) is below 25% and the “M3 Activity” value was “+ (activity was measured to be greater than 5.0 μM)”. At M4 muscarinic receptor, the Emax was in the range of 25 to 100% and the “M4 Activity” value is on record as “+++ (activity was measured to be less than 1.0 μM)”. Moreover, on M2 muscarinic receptor, the maximal effect (Emax) was below 25% and the “M2 Activity” value is “+ (activity was measured to be greater than 5.0 μM)”.

For `COc1ccc(Cl)cc1C1CCN(C2CCC(=O)CC2)CC1` [Compound 273, 4-(4-(5-chloro-2-methoxyphenyl)piperidin-1-yl)cyclohexanone], at M1 muscarinic receptor, the Emax was in the range of 25 to 100% and the “M1 Activity” value is on record as “+ (activity was measured to be greater than 5.0 μM)”. Moreover, on M3 muscarinic receptor, the maximal response (Emax) is below 25% and the “M3 Activity” value was “+ (activity was measured to be greater than 5.0 μM)”. Also, on M4 muscarinic receptor, the Emax was in the range of 25 to 100% and the “M4 Activity” value is reported as “+++ (activity was measured to be less than 1.0 μM)”. At M2 muscarinic receptor, the maximal response (Emax) was in the range of 25 to 100% and the “M2 Activity” value was “++ (activity was measured to be from 1.0 μM to 5.0 μM)”.

In the case of `Fc1cccc(-c2ccccc2C2CCN([C@H]3C[C@H]4CC[C@H]3C4)CC2)c1` [Compound 274], at M1 muscarinic receptor, the Emax was below 25% and the “M1 Activity” value is listed as “+ (activity was measured to be greater than 5.0 μM)”. On M3 muscarinic receptor, the Emax was below 25% and the “M3 Activity” value is listed as “+ (activity was measured to be greater than 5.0 μM)”. On M4 muscarinic receptor, the Emax was in the range of 25 to 100% and the “M4 Activity” value is listed as “++ (activity was measured to be from 1.0 μM to 5.0 μM)”. Moreover, on M2 muscarinic receptor, the maximal effect (Emax) is below 25% and the “M2 Activity” value was “+ (activity was measured to be greater than 5.0 μM)”.

Turning to `COc1ccc(-c2ccc(S(C)(=O)=O)cc2)cc1C1CCN(C2CCCC2)CC1` [Compound 275], at M1 muscarinic receptor, the Emax is 25 to 100% and the “M1 Activity” value was “+ (activity was measured to be greater than 5.0 μM)”. In addition, on M3 muscarinic receptor, the Emax is below 25% and the “M3 Activity” value is listed as “+ (activity was measured to be greater than 5.0 μM)”. Besides, at M4 muscarinic receptor, the Emax lay in the range of 25 to 100% and the “M4 Activity” value is “++ (activity was measured to be from 1.0 μM to 5.0 μM)”. In addition, on M2 muscarinic receptor, the Emax lay within 25 to 100% and the “M2 Activity” value is reported as “+ (activity was measured to be greater than 5.0 μM)”.

Turning to `Fc1cccc(C2CCN(C3C[C@H]4CC[C@H]3C4)CC2)c1F` (stereo partly drawn) [Compound 276], at M1 muscarinic receptor, the maximum response (Emax) was 25 to 100% and the “M1 Activity” value was “+ (activity was measured to be greater than 5.0 μM)”. At M3 muscarinic receptor, the Emax is below 25% and the “M3 Activity” value is “+ (activity was measured to be greater than 5.0 μM)”. For the same compound, at M4 muscarinic receptor, the maximal response (Emax) lay within 25 to 100% and the “M4 Activity” value was “++ (activity was measured to be from 1.0 μM to 5.0 μM)”. Besides, at M2 muscarinic receptor, the maximal effect (Emax) is below 25% and the “M2 Activity” value is listed as “+ (activity was measured to be greater than 5.0 μM)”.

(Values after patent US7880007B2, “Bicyclic substituted phenyl piperidine modulators of muscarinic receptors” (Vertex Pharmaceuticals Incorporated, priority 2004, dated 2011).)
